Experiments:
[1] = molecular target: T1, MMP-9 (Rattus norvegicus, UniProt P50282); experiment: MMP-9 activity after DC injury in rats; type: in vivo; conditions: oral
T1 construct: from tissue; host or cells: Sprague-Dawley rat spinal cord lesion site
Protocol: (§1) The efficacy of oral AZD3342 in the DC injury model in adult Sprague-Dawley rat was also assessed. Animals were divided into 6 groups: (1), Sham (control); (2), DC crush injury+Vehicle; (3), DC crush injury+15 mg/kg AZD3342; (4), DC crush injury+75 mg/kg […]; (5), DC crush injury+375 mg/kg AZD3342; and (6), DC crush injury+Melatonin. Animals were dosed twice daily with oral AZD3342 or vehicle with the experimenters masked to the treatment conditions. These experiments were performed with n=6 rats/group and repeated on 2-3 independent occasions (total n=12-18 rats/group/test).
The lesion site+3 mm either side for mouse (DC and CC SCI) and lesion site+5 mm either side for rat was dissected (n=6 mice/rats/group, 2 independent repeats, total n=12 mice/rats/group) and rapidly frozen in liquid N2 and stored at −80° C. until required. The enzymatic activity of MMP-9 and MMP-12 was determined in 96-well plates using the SensoLyte 520 MMP-9 and MMP-12 fluorimetric assay kit, according to the manufacturer's instructions (AnaSpec, Fremont, Calif., USA). Fluorescence intensity was measured using a Synergy H1 microplate reader (BioTek UK, Swindon, UK) at Ex/Em=490/520 nm.

[2] = tested on: IL-1β, TNF-α and IL-6; experiment: Proinflammatory pain cytokines after DC injury in rats; type: in vivo; conditions: rat DC injury, oral
Protocol: as §1
The lesion site+5 mm either side (DC and CC SCI, n=6 mice/rats/group, 2 independent repeats (total n=12 mice/rats/group)) was dissected and rapidly frozen in liquid N2 and stored at −80° C. until required. […] The levels of mRNA of MMP-9, MMP-12, IL-1β, TNF-α and IL-6 were determined using pre-validated mouse primer sequences from complimentary DNA prepared from extracted mRNA and qRT-PCR was performed using a LightCycler PCR machine (Roche, Burgess Hill, UK) (M. L. Read, S. Mir, R. Spice, R. J. Seabright, E. L. Suggate, Z. Ahmed, M. Berry, A. Logan, Profiling RNA interference (RNAi)-mediated toxicity in neural cultures for effective short interfering RNA design. J Gene Med 11, 523-534 (2009)). […]

[3] = tested on: mice with DC crush injury; experiment: Tape removal test (sensory function) after DC injury in mice; type: in vivo, mouse
Protocol: Functional testing after DC lesion and treatment was carried out as described previously (N. D. Fagoe, C. L. Attwell, R. Eggers, L. Tuinenbreijer, D. Kouwenhoven, J. Verhaagen, M. R. Mason, Evaluation of Five Tests for Sensitivity to Functional Deficits following Cervical or Thoracic Dorsal Column Transection in the Rat. PLoS One 11, e0150141 (2016)).
Briefly, animals (n=18/group) were first trained to master traversing a horizontal ladder for 1 w before functional testing. Baseline parameters were established by performing tests at 2-3d before injury. Animals were then tested at 2d, 1 w, 2 w, 3 w, 4 w, 5 w and 6 w after DC injury+treatment. Experiments were performed by an observer masked to the treatment conditions in the same order and time of day with each test performed for 3 individual trials.
Tape removal test (sensory function): The tape removal test determines touch perception from the left hind paw. After holding animals with both hind-paws extended, the time it took for the animal to detect and remove a piece of tape of 15×15 mm (Kip Hochkrepp, Bocholt, Germany) affixed to the palm of the left hind-paw was recorded and used to calculate the mean sensing time.

[4] = tested on: mice with DC crush injury; experiment: Electrophysiology: compound action potentials (CAP) across DC lesion in mice; type: in vivo, mouse
Protocol: Compound action potentials (CAP) were recorded at 6 w weeks after DC injury and treatment, as described previously—for example B. C. Hains, C. Y. Saab, A. C. Lo, S. G. Waxman, Sodium channel blockade with phenytoin protects spinal cord axons, enhances axonal conduction, and improves functional motor recovery after contusion SCI. Exp Neurol 188, 365-377 (2004).
Briefly, the experimenter was masked to the treatment status of the animals and the CAP amplitude was calculated between the negative deflection after the stimulus artifact and the next peak of the wave. CAP area was also calculated by rectifying the CAP component (full-wave rectification) and measuring its area. To confirm our recordings and that a CAP could not be recorded, the dorsal half of the spinal cord was transected after each experiment between the stimulating and recording electrodes.

[5] = optimal doses, 24 h delay vs immediate

T1 sequence (P50282 108-708): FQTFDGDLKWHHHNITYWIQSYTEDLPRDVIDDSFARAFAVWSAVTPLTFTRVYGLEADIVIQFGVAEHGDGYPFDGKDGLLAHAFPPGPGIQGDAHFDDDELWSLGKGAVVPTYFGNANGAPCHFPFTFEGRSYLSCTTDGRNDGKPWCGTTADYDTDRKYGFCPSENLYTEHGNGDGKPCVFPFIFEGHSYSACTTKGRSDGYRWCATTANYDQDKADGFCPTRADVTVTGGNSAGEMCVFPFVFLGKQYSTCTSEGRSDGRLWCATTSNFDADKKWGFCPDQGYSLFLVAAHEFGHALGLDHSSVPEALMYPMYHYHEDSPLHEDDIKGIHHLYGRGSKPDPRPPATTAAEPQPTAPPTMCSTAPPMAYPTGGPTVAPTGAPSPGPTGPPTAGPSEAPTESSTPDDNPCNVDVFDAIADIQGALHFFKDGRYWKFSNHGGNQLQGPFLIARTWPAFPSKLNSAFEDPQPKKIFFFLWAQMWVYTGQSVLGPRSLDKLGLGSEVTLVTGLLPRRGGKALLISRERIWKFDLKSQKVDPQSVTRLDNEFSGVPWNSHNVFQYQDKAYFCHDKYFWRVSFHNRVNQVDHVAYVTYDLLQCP

SMILES: C[C@]1(CS(=O)(=O)N2CCC(Oc3ccc(Cl)cn3)CC2)NC(=O)NC1=O [AZD3342, (5S)-5-[4-(5-chloro-pyridin-2-yloxy)-piperidine-1-sulfonylmethyl]-5-methylimidazolidine-2,4-dione]
- MMP-9 activity [1]: significantly suppresses
- expression of proinflammatory pain cytokines [2]: significantly suppressed

SMILES: C[C@]1(CS(=O)(=O)N2CC=C(C#Cc3cnc(C4CC4)nc3)CC2)NC(=O)NC1=O [AZD1236]
- sensory function, 24-h delayed treatment [3, 5]: equally as effective as immediate delivery
- improvement in sensory function ([3]; oral): 85%
- mean tape sensing and removal time ([3]; oral, by 3 weeks): indistinguishable from sham-treated groups
- dorsum cord potentials, CAP amplitudes, CAP areas, 24-h delayed treatment [4, 5]: equally as effective as immediate delivery
- CAP area relative to Sham-treated controls ([4]; oral): 80%
- CAP wave ([4]; oral 200 mg/kg, 6 weeks after DC injury): restored a significant CAP wave
- mean CAP amplitude ([4]; oral, all stimulation intensities): significantly larger CAP amplitudes
- CAP area ([4]; oral, sham 0.65±0.02, DC+vehicle 0.06±0.02): 0.52±0.09 mV×ms

From patent US20230255943A1, “MMP-9 AND MMP-12 INHIBITION FOR TREATING SPINAL CORD INJURY OR RELATED INJURY TO NEUROLOGICAL TISSUE” (The University of Birmingham, priority 2020, published 2023)
